Active and inactive are the calls of the source. No cut-off for these calls is given here.
Experiments:
HSC-2 [1] = experiment: Cytotoxicity against human HSC2 cells assessed as cell viability after 24 hrs; assay type: functional, cell-based; details: HSC-2, 24 h
HSC-2 [2] = experiment: Cytotoxicity against human HSC2 cells assessed as cell viability up to 100 uM after 24 hrs; assay type: functional, cell-based

Row | SMILES | IC50 (HSC-2 [1]) [µM] | Activity (HSC-2 [2])
1 | CCC(=O)[C@@H]1C[C@@H](C)[C@]2(CC(=O)[C@@]3(C)C4=C(CC[C@@]32C)[C@@]2(C)CC[C@H](O[C@@H]3O[C@H](CO[C@@H]5OC[C@H](O)[C@H](O)[C@H]5O[C@@H]5O[C@H](CO)[C@@H](O)[C@H](O[C@@H]6OC[C@H](O)[C@H](O)[C@H]6O[C@@H]6OC[C@@H](O)[C@H](O)[C@H]6O)[C@H]5O[C@@H]5O[C@@H](C)[C@H](O)[C@@H](O)[C@H]5O)[C@@H](O)[C@H](O)[C@H]3O)[C@](C)(CO)[C@@H]2CC4)O1 | 19 | 
2 | CCC(=O)[C@H]1C[C@@H](C)[C@]2(CC(=O)[C@@]3(C)C4=C(CC[C@@]32C)[C@@]2(C)CC[C@H](O[C@@H]3O[C@H](CO[C@@H]5OC[C@H](O)[C@H](O)[C@H]5O[C@@H]5O[C@H](CO)[C@@H](O)[C@H](O)[C@H]5O[C@@H]5O[C@@H](C)[C@H](O)[C@@H](O)[C@H]5O)[C@@H](O)[C@H](O)[C@H]3O)[C@](C)(CO)[C@@H]2CC4)O1 |  | inactive
3 | CCC(=O)[C@@H]1C[C@@H](C)[C@]2(CC[C@@]3(C)C4=C(CC[C@@]32C)[C@@]2(C)CC[C@H](O[C@@H]3O[C@H](CO[C@@H]5OC[C@H](O)[C@H](O)[C@H]5O[C@@H]5O[C@H](CO)[C@@H](O)[C@H](O[C@@H]6OC[C@H](O)[C@H](O)[C@H]6O[C@@H]6OC[C@@H](O)[C@H](O)[C@H]6O)[C@H]5O[C@@H]5O[C@@H](C)[C@H](O)[C@@H](O)[C@H]5O)[C@@H](O)[C@H](O)[C@H]3O)[C@](C)(CO)[C@@H]2CC4)O1 | 7.3 | 
4 | CCC(=O)[C@H]1C[C@@H](C)[C@]2(CC(=O)[C@@]3(C)C4=C(CC[C@@]32C)[C@@]2(C)CC[C@H](O[C@@H]3O[C@H](CO[C@@H]5OC[C@H](O)[C@H](O)[C@H]5O[C@@H]5O[C@H](CO)[C@@H](O)[C@H](O[C@@H]6OC[C@H](O)[C@H](O)[C@H]6O[C@@H]6OC[C@@H](O)[C@H](O)[C@H]6O)[C@H]5O[C@@H]5O[C@@H](C)[C@H](O)[C@@H](O)[C@H]5O)[C@@H](O)[C@H](O)[C@H]3O)[C@](C)(CO)[C@@H]2CC4)O1 |  | inactive
5 | CCC(=O)[C@H]1C[C@@H](C)[C@]2(CC(=O)[C@@]3(C)C4=C(CC[C@@]32C)[C@@]2(C)CC[C@H](O[C@@H]3O[C@H](CO[C@@H]5OC[C@H](O)[C@H](O)[C@H]5O[C@@H]5O[C@H](CO)[C@@H](O)[C@H](O)[C@H]5O[C@@H]5OC[C@](O)(CO)[C@H]5O)[C@@H](O)[C@H](O)[C@H]3O)[C@](C)(CO)[C@@H]2CC4)O1 |  | inactive
6 | CCC(=O)[C@@H]1C[C@@H](C)[C@]2(CC(=O)[C@@]3(C)C4=C(CC[C@@]32C)[C@@]2(C)CC[C@H](O[C@@H]3O[C@H](CO[C@@H]5OC[C@H](O)[C@H](O)[C@H]5O[C@@H]5O[C@H](CO)[C@@H](O)[C@H](O)[C@H]5O[C@@H]5O[C@@H](C)[C@H](O)[C@@H](O)[C@H]5O)[C@@H](O)[C@H](O)[C@H]3O)[C@](C)(CO)[C@@H]2CC4)O1 | 63 | 
7 | CCC(=O)[C@@H]1C[C@@H](C)[C@]2(CC(=O)[C@@]3(C)C4=C(CC[C@@]32C)[C@@]2(C)CC[C@H](O[C@@H]3O[C@H](CO[C@@H]5OC[C@H](O)[C@H](O)[C@H]5O[C@@H]5O[C@H](CO)[C@@H](O)[C@H](O)[C@H]5O[C@@H]5OC[C@](O)(CO)[C@H]5O)[C@@H](O)[C@H](O)[C@H]3O)[C@](C)(CO)[C@@H]2CC4)O1 | 6.2 | 
8 | CCC(=O)[C@@H]1C[C@@H](C)[C@]2(CC[C@@]3(C)C4=C(CC[C@@]32C)[C@@]2(C)CC[C@H](O[C@@H]3O[C@H](CO[C@@H]5OC[C@H](O)[C@H](O)[C@H]5O[C@@H]5O[C@H](CO)[C@@H](O)[C@H](O)[C@H]5O[C@@H]5O[C@@H](C)[C@H](O)[C@@H](O)[C@H]5O)[C@@H](O)[C@H](O)[C@H]3O)[C@](C)(CO)[C@@H]2CC4)O1 | 32 | 

— ChEMBL document CHEMBL1148985, “27-norlanostane glycosides from the bulbs of Muscari paradoxum” (J Nat Prod, 2004)
